Here are results for 13 molecules from paper PMC6271101, “Antioxidant, 5-Lipoxygenase Inhibitory and Cytotoxic Activities of Compounds Isolated from the Ferula lutea Flowers” (Molecules, 2014).

Where “and” joins values, the source holds several entries; their conditions need not be identical. Equal values may be shown once. Read-outs that look alike come from different tables or passages of the source.

The nature of data set [1]: MTT cytotoxicity assay, OVCAR-3. Conditions: human, OVCAR-3 ovary cells; OVCAR-3, MTT; read-out: Cytotoxic Activity (IC50 µmol/L) OVCAR-3. Type of data set: cell-based. The method, then: (§1) The human cancer cell line was used for cytotoxic assay: (HCT-116, IGROV-1 and OVCAR-3). The cells were grown in RPMI-1640 medium supplemented with 10% faetal calf serum (Gibco, Langley, OK, USA), air and 5% CO2. The isolate was added to a medium containing 1 × 10^6 cells/mL, 2 mM L-glutamine and 50 μg/mL gentamycin, and kept at 37 °C in a fully humidified atmosphere. After 18 h of incubation at 37 °C in 5% CO2 incubator, the tubes were centrifuged at 8000 g for 10 min. The supernatant was decanted, and the pellets taken and washed with 20 mM of phosphate buffered saline solution. Each pellet was dissolved in 100 μL (2 mg/mL) MTT solution in a tube, incubated at 22 °C for 4 h and centrifuged at 8000 g for 10 min. All the pellets were dissolved in 500 μL DMSO and read spectrophotometrically at 500 nm. IC50 was calculated by nonlinear regression analysis. Doxorubicin (HCT116) and tamoxifen (IGROV-1 and OVCAR-3) were used as positive control.
Background: Tetrazolium dyes change colour on reduction, which living cells bring about.

For data set [2], the target named is T1, 5-lipoxygenase (Glycine max, UniProt P08170).
T1 sequence (P08170 1-839): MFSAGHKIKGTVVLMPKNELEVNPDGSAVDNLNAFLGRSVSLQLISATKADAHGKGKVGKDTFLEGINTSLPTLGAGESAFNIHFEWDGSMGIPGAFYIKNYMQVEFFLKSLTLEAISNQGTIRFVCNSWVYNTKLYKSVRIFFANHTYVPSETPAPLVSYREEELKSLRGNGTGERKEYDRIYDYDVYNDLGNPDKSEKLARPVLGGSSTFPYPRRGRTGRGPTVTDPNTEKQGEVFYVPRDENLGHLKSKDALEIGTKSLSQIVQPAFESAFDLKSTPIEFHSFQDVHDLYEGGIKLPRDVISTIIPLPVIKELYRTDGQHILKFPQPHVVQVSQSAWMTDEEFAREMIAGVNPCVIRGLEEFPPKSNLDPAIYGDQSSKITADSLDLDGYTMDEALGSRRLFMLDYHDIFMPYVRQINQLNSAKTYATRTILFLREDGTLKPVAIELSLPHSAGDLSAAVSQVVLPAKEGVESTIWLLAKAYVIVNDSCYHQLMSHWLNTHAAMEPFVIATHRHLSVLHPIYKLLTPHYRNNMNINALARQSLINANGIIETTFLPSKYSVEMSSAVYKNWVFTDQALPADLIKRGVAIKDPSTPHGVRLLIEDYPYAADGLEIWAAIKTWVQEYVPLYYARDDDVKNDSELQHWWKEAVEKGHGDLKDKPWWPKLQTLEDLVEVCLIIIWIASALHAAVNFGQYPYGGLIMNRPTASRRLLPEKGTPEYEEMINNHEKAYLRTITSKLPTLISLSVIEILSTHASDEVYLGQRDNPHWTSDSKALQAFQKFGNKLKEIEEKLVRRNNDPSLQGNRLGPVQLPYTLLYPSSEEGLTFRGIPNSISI
The data set is described as follows: 5-Lipoxygenase inhibitory assay (linoleic acid, 234 nm). Type of data set: biochemical, Soybean. The note with it: for inhibition at 80 µM: read-out: 5-Lipoxygenase Inhibitory (% at 80 µmol/L). On the procedure:
The anti-inflammatory activity activities of the isolates was determined on Soybean lipoxygenase as described by Khlifi et al. with some modifications. 20 µL of each compound was mixed individually with 150 µL sodium phosphate buffer (pH 7.4) containing 20 µL of 5-lipoxygenase and 60 µL of linoleic acid (3.5 mM), yielding a final volume of 250 µL. […] The mixture was incubated at 25 °C for 10 min, and the absorbance was determined at 234 nm. The absorption change with the conversion of linoleic acid to 13-hydroperoxyoctadeca-9,11-dienoate (characterized by the appearance of the conjugated diene at 234 nm) was followed for 10 min at 25 °C. […] All measurements were performed in triplicate.

A short description of data set [3]: MTT cytotoxicity assay, IGROV-1. The class given is cell-based. The note with it: human, IGROV-1 ovary cells; IGROV-1, MTT; read-out: Cytotoxic Activity (IC50 µmol/L) IGROV-1. The method, then:
as §1

Data set [4] in a line: MTT cytotoxicity assay, HCT-116. The class given is cell-based. Conditions: human, HCT-116 colon carcinoma cells; HCT-116, MTT; read-out: Cytotoxic Activity (IC50 µmol/L) HCT-116. On the procedure: as §1
A short description of data set [5]: ABTS radical-scavenging test. Conditions: mean ± SD of three measurements; read-out: IC50 (µmol/L) ABTS+ Assay. On the procedure: The radical scavenging capacity of the samples for the ABTS (2,2′-azinobis-3-ethylbenzothiazoline-6-sulphonate) radical cation was determined as described by Khlifi et al., [33] with some modifications. ABTS was generated by mixing a 7 mM of ABTS at pH 7.4 (5 mM NaH2PO4, 5 mM Na2HPO4 and 154 mM NaCl) with 2.5 mM potassium persulfate (final concentration) followed by storage in the dark at room temperature for 16 h before use. The mixture was diluted with ethanol to give an absorbance of 0.70 ± 0.02 units at 734 nm using spectrophotometer. For each sample, diluted solution (20 μL) was allowed to react with fresh ABTS solution (180 μL), and then the absorbance was measured 6 min after initial mixing. […] The capacity of free radical scavenging IC50 was determined using the same previously used equation for the DPPH method. All measurements were performed in triplicate.

Data set [6] is described as follows: DPPH free radical scavenging test. Conditions: mean ± SD of three measurements; read-out: IC50 (µmol/L) DPPH Assay. On the procedure: The antioxidant activity of compounds was assessed according to their DPPH scavenging ability as described by Khlifi et al., [33] with some modifications. Reaction mixtures, containing 0.1 mL of the relevant compounds solution in methanol, with concentrations ranging 3 mg/mL and 0.1 mL of a 0.2 mM DPPH methanolic solution, were added to 96-well microtiter plates and incubated at 25 °C for 30 min. Absorbances were measured at 520 nm, the wavelength of maximum absorbance of DPPH, were recorded as A(sample). A blank experiment was also carried out applying the same procedure to a solution without the test material and the absorbance was recorded as A(blank).
Ascorbic acid was used as a standard. All measurements were performed in triplicate.

Details of data set [7]: method as in doi:10.1016/j.foodchem.2011.09.005. Conditions: previously tested; read-out: hydrogen peroxide (H2O2) inhibition IC50; cited from earlier work.
For data set [8], the system named is liver cell line Hep-G2. Further details: method as in PMID 18481014. The note with it: read-out: IC50 against Hep-G2; cited from earlier work.
For data set [9], the system named is 5-lipoxygenase isolated from rat basophilic leukaemia cells (RBL-1). On the set-up: method as in doi:10.1016/j.foodchem.2009.09.088. Conditions: at 20 µmol/L; cited from earlier work.
On the set-up of data set [10]: method as in doi:10.1016/j.foodchem.2011.09.005. Conditions: previously tested; read-out: Fe3+ reducing power ability IC50; cited from earlier work.
The conditions of data set [11]: previously tested, cited from earlier work.
Data set [12] deals with human promyelocytic leukemia cell HL-60. On the set-up: method as in PMID 15387667. The note with it: read-out: IC50 against HL-60; cited from earlier work.
The subject of data set [13] is LoVo/Doxo. Further details: method as in PMID 15387667. The note with it: read-out: IC50 against LoVo/Doxo; cited from earlier work.
For data set [14], the system named is human fibrosarcoma cell line HT-1080. On the set-up: method as in PMID 15387667. Conditions: read-out: IC50 against HT-1080; cited from earlier work.
Data set [15] relates to colon cancer cell line LoVo. On the set-up: method as in PMID 15387667. Conditions: read-out: IC50 against LoVo; cited from earlier work.
The mark [16] stands for this setting: read-out: DPPH radical scavenging activity IC50.

Turning to `O=C(/C=C/c1ccc(O)c(O)c1)O[C@@H]1C[C@](O)(C(=O)O)C[C@@H](O)[C@H]1O` [Compound 4, 5-O-Caffeoylquinic acid], the IC50 at 18 h in [1], in data set [3] and in [4] was over 100 µmol/L each time. Also, the inhibition at 80 µM in data set [2] was 17.1 ± 1.1%.
In the case of `O=C1O[C@H]([C@@H](O)CO)C(O)=C1O` [Vitamin C, ascorbic acid, reference compound], the IC50 was 23.3 ± 0.1 µmol/L in [5] and 25 ± 1.1 µmol/L in [6].
On to `C/C(=C\C(=O)O)CO` [Compound 2, 4-Hydroxy-3-methylbut-2-enoic acid], for which the IC50 at 18 h in [1], in data set [3] and in [4] was over 100 µmol/L each time. Also, the “5-Lipoxygenase Inhibitory (% at 80 µmol/L)” value in [2] was “did not exhibit activities”. Also, the inhibition at 80 µM in [2] was 0%.
As for `CC/C(=C(\c1ccccc1)c1ccc(OCCN(C)C)cc1)c1ccccc1` [Tamoxifen, tamoxifen, reference compound], the IC50 at 18 h in [1] is 1.3 ± 0.1 µmol/L; in data set [3], 2 ± 0.1 µmol/L.
Turning to `C/C(O[C@@H]1O[C@H](CO)[C@@H](O)[C@H](O)[C@H]1O)=C1/C=CC(=O)O1` [Compound 1, (E)-5-Ethylidenefuran-2(5H)-one-5-O-β-D-glucopyranoside], the IC50 at 18 h in [1], in data set [3] and in [4] was over 100 µmol/L in each case. Moreover, in [2], the inhibition at 80 µM stood at 16.9 ± 1.2%.
In the case of `CC(C)=CCOc1c2ccoc2cc2oc(=O)ccc12` [Compound 10, Isoimperatorin], the IC50 at 18 h in data set [1], in data set [3] and in [4] was over 100 µmol/L in each case. In addition, in [2], the “5-Lipoxygenase Inhibitory (% at 80 µmol/L)” value is recorded as “did not exhibit activities”. For the same molecule, the inhibition at 80 µM in data set [2] worked out at 0%.
Regarding `COC(=O)[C@]1(O)C[C@@H](OC(=O)/C=C/c2ccc(O)c(O)c2)[C@@H](O)[C@H](OC(=O)/C=C/c2ccc(O)c(O)c2)C1` [Compound 6, Methyl 3,5-O-Dicaffeoylquinate], the IC50 in data set [7] was 316.4 ± 2.86 µM; in [8] it was 72.7 ± 6.2 µM; in [2], 5.3 µM and 5.28 µM; in data set [5], 20 ± 0.3 µmol/L; in data set [10] it was 270 ± 7.37 µM; in [11] (read-out: DPPH IC50), 10.3 ± 0.24 µM. In [6], the IC50 came out at 26.6 ± 1.3 µmol/L. Further, the IC50 at 18 h in data set [1], in [3] and in [4] was over 100 µmol/L in each case. Further, the “percent inhibition of 5-lipoxygenase (RBL-1)” value in [9] is recorded as 15.1%.
Regarding `CC1=CC(=O)C2CC1(O[C@@H]1O[C@H](CO)[C@@H](O)[C@H](O)[C@H]1O)C2(C)C` (stereo partly drawn) [Compound 3, Verbenone-5-O-β-D-glucopyranoside], the IC50 at 18 h in [1], in [3] and in data set [4] was over 100 µmol/L in each case. Moreover, in data set [2], the inhibition at 80 µM is 12.4 ± 0.8%.
As to `COc1cccc2c1C(=O)c1c(O)c3c(c(O)c1C2=O)C[C@@](O)(C(=O)CO)C[C@@H]3O[C@H]1C[C@H](N)[C@H](O)[C@H](C)O1` [Doxorubicin, reference compound], the IC50 at 18 h in data set [4] came to 0.18 ± 0.01 µmol/L.
With `CC(C)(O)[C@@H]1Cc2cc3ccc(=O)oc3cc2O1` [Compound 9, (−)-Marmesin], the IC50 at 18 h in data set [1] is over 100 µmol/L; in [3], over 100 µmol/L; in data set [4] it was 50 ± 4.9 µmol/L. For the same molecule, in data set [2], the “5-Lipoxygenase Inhibitory (% at 80 µmol/L)” value is listed as “did not exhibit activities”. Further, the inhibition at 80 µM in data set [2] is 0%.
`O=C(/C=C/c1ccc(O)c(O)c1)O[C@@H]1C[C@](O)(C(=O)O)C[C@@H](OC(=O)/C=C/c2ccc(O)c(O)c2)[C@H]1O` [Compound 7, 3,5-O-Dicaffeoylquinic acid]: the IC50 at 18 h in [1], in [3] and in data set [4] was over 100 µmol/L each time. The IC50 in data set [2] was 10 ± 0.2 µM; in data set [5] it was 19.7 ± 0.7 µmol/L; in [11] (setting [16]) it was 18.2 ± 0.5 µM; in data set [6], 18 ± 0.5 µmol/L. In addition, the “percent inhibition of 5-lipoxygenase (RBL-1)” value in data set [9] is “inactive”.
For the molecule `Cc1ccc(C)c(C=O)c1C` [Compound 11, 2,3,6-Trimethylbenzaldehyde], the IC50 at 18 h in data set [1], in data set [3] and in data set [4] was over 100 µmol/L in each case. In addition, the “5-Lipoxygenase Inhibitory (% at 80 µmol/L)” value in data set [2] was “did not exhibit activities”. The inhibition at 80 µM in data set [2] was found to be 0%.
As to `COC(=O)/C=C/c1ccc(O)c(O)c1` [Compound 5, Methyl caffeate], the IC50 was 7.5 ± 1.6 µM in data set [12]; at least 40 µM in [13]; 40.8 ± 0.4 µmol/L in [5]; 14 ± 2.3 µM in data set [11] (setting [16]); 39.2 ± 0.5 µmol/L in data set [6]; 11.1 ± 3.5 µM in data set [14]. Also, the IC50 in [15] was 5.8 ± 1.1 µM. For the same molecule, the results for the IC50 at 18 h in data set [1], in [3] and in [4] were 25 ± 1.1 µmol/L, 17.8 ± 1.1 µmol/L and 22.5 ± 2.4 µmol/L, respectively. Besides, the “5-Lipoxygenase Inhibitory (% at 80 µmol/L)” value in data set [2] is listed as “did not exhibit activities”. Also, in data set [2], the inhibition at 80 µM worked out at 0%.
